From paper PMC11439681, “The identification of potent dual-target monopolar spindle 1 (MPS1) and histone deacetylase 8 (HDAC8) inhibitors through pharmacophore modeling, molecular docking, molecular dynamics simulations, and biological evaluation” (Frontiers in Pharmacology, 2024)

Key:
BEL7402 = assay: MTT cytotoxicity assay, BEL7402; assay type: cell-based; details: Homo sapiens, Bel-7402, 72 h cell treatment
Experimental: The cells (5 × 10^4 cells/well) were incubated overnight in 96-well plates. A series of solutions containing varying concentrations of inhibitors were added and incubated at 37°C for a period of 72 h. Subsequently, the culture medium was removed, followed by a subsequent incubation of the cells with a 5 mg/mL MTT stock solution for 4 h. After centrifugation, the precipitate was solubilized in DMSO and gently shaken for 15 min. Finally, the absorbance measurement at 570 nm was completed using a microplate reader. Data analysis was performed using GraphPad Prism 6.0 software.

ABL1 = target: T1, ABL1 (Homo sapiens, UniProt P00519); assay: In vitro selectivity assay; assay type: biochemical; details: selectivity panel
T1 construct: ICE Bioscience Inc. (assay service)
Experimental: (§1) The inhibitory effects of compound MPH-5 on a panel of 68 kinases and other histone deacetylases were evaluated to assess the selectivity profile of MPH-5. This experiment was conducted by ICE Bioscience Inc. (Beijing, China).

PTK6 = target: T2, PTK6 (Homo sapiens, UniProt Q13882); assay: In vitro selectivity assay; assay type: biochemical; details: selectivity panel
T2 construct: ICE Bioscience Inc. (contract assay provider)
Experimental: as §1

HDAC1 = target: T3, HDAC1 (Homo sapiens, UniProt Q13547); assay: In vitro selectivity assay; assay type: biochemical; details: selectivity panel
T3 construct: ICE Bioscience Inc. (contract assay provider)
Experimental: as §1

HDAC5 = target: T4, HDAC5 (Homo sapiens, UniProt Q9UQL6); assay: In vitro selectivity assay; assay type: biochemical; details: selectivity panel
T4 construct: ICE Bioscience Inc. (contract assay provider)
T4 sequence (Q9UQL6 whole entry): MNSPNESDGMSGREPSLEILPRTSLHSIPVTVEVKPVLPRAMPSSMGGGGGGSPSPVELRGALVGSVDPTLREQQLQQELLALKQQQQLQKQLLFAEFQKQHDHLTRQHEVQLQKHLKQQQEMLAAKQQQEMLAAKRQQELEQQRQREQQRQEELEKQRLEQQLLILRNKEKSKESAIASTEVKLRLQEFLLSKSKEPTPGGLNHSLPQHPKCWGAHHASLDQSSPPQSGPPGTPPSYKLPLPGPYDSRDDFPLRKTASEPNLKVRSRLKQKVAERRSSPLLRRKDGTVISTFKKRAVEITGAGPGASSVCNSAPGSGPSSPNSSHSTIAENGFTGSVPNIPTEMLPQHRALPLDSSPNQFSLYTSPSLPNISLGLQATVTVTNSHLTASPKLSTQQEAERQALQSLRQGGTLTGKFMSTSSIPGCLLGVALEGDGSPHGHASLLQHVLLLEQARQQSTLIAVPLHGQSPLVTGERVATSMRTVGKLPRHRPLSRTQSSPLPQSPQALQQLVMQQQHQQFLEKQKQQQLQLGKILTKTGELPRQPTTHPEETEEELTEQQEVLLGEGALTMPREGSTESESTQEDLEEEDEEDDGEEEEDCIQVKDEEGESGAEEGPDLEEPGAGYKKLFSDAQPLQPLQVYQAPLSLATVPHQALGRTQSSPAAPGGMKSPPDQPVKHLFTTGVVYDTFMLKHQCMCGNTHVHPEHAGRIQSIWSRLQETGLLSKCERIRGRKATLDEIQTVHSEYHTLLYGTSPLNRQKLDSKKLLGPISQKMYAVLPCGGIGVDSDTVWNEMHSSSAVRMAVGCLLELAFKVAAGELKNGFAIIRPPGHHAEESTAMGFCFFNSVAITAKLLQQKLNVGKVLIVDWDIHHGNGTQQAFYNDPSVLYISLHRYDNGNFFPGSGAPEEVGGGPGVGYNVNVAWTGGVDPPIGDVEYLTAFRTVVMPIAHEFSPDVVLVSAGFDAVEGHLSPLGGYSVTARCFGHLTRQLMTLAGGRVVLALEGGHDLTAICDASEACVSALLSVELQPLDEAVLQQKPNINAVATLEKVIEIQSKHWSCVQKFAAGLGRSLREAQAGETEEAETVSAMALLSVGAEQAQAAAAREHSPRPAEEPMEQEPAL
Experimental: as §1

BTK = target: T5, BTK (Homo sapiens, UniProt Q06187); assay: In vitro selectivity assay; assay type: biochemical; details: selectivity panel
T5 construct: ICE Bioscience Inc. (assay service)
Experimental: as §1

TYRO3 = TYRO3 (Homo sapiens, UniProt Q06418); assay: In vitro selectivity assay; assay type: biochemical; details: selectivity panel
Chain of TYRO3 (Q06418 41-890): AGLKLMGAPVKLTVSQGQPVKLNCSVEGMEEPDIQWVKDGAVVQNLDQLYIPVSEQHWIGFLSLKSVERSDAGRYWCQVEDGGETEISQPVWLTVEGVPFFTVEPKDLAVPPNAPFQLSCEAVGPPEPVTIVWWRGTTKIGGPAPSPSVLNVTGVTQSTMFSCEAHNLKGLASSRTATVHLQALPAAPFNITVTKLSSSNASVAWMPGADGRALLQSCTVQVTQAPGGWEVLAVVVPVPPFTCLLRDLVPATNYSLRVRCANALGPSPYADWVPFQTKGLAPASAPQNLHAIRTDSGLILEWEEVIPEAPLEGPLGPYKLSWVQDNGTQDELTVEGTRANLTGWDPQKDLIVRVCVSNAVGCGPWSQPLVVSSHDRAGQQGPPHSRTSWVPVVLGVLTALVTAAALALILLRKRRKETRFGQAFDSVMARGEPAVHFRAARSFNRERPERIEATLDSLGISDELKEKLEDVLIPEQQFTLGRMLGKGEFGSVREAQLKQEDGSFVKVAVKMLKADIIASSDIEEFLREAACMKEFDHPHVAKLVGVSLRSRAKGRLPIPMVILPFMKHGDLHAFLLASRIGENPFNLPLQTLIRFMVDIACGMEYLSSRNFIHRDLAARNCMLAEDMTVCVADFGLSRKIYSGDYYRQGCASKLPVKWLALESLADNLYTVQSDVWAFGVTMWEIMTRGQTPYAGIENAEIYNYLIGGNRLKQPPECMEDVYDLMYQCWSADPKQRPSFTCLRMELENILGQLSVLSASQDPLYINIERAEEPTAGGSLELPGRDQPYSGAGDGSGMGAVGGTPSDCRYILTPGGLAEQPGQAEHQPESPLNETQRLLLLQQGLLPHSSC
Experimental: as §1

EPHB3 = target: T6, EPHB3 (Homo sapiens, UniProt P54753); assay: In vitro selectivity assay; assay type: biochemical; details: selectivity panel
T6 construct: ICE Bioscience Inc. (assay service)
Experimental: as §1

CSF1R = target: T7, CSF1R (Homo sapiens, UniProt P07333); assay: In vitro selectivity assay; assay type: biochemical; details: selectivity panel
T7 construct: ICE Bioscience Inc. (assay service)
Experimental: as §1

EPHA3 = target: T8, EPHA3 (Homo sapiens, UniProt P29320); assay: In vitro selectivity assay; assay type: biochemical; details: selectivity panel
T8 construct: ICE Bioscience Inc. (assay service)
Experimental: as §1

PDGFRB = target: T9, PDGFRB (Homo sapiens, UniProt P09619); assay: In vitro selectivity assay; assay type: biochemical; details: selectivity panel
T9 construct: ICE Bioscience Inc. (contract assay provider)
Experimental: as §1

EPHA6 = target: T10, EPHA6 (Homo sapiens, UniProt Q9UF33); assay: In vitro selectivity assay; assay type: biochemical; details: selectivity panel
T10 construct: ICE Bioscience Inc. (assay service)
Experimental: as §1

NTRK1 = target: T11, NTRK1 (Homo sapiens, UniProt P04629); assay: In vitro selectivity assay; assay type: biochemical; details: selectivity panel
T11 construct: ICE Bioscience Inc. (contract assay provider)
Experimental: as §1

ALK = target: T12, ALK (Homo sapiens, UniProt Q9UM73); assay: In vitro selectivity assay; assay type: biochemical; details: selectivity panel
T12 construct: ICE Bioscience Inc. (assay service)
Experimental: as §1

EPHB4 = EPHB4 (Homo sapiens, UniProt P54760); assay: In vitro selectivity assay; assay type: biochemical; details: selectivity panel
Experimental: as §1

MST1R = target: T13, MST1R (Homo sapiens, UniProt Q04912); assay: In vitro selectivity assay; assay type: biochemical; details: selectivity panel
T13 construct: ICE Bioscience Inc. (contract assay provider)
Experimental: as §1

YES1 = YES1 (Homo sapiens, UniProt P07947); assay: In vitro selectivity assay; assay type: biochemical; details: selectivity panel
Experimental: as §1

MUSK = target: T14, MUSK (Homo sapiens, UniProt O15146); assay: In vitro selectivity assay; assay type: biochemical; details: selectivity panel
T14 construct: ICE Bioscience Inc. (contract assay provider)
Experimental: as §1

SRC = target: T15, SRC (Homo sapiens, UniProt P12931); assay: In vitro selectivity assay; assay type: biochemical; details: selectivity panel
T15 construct: ICE Bioscience Inc. (contract assay provider)
Experimental: as §1

ZAK = ZAK (Homo sapiens, UniProt Q9NYL2); assay: In vitro selectivity assay; assay type: biochemical; details: selectivity panel
Experimental: as §1

FGFR4 = FGFR4 (Homo sapiens, UniProt P22455); assay: In vitro selectivity assay; assay type: biochemical; details: selectivity panel
Experimental: as §1

PTK2 = target: T16, PTK2 (Homo sapiens, UniProt Q05397); assay: In vitro selectivity assay; assay type: biochemical; details: selectivity panel
T16 construct: ICE Bioscience Inc. (contract assay provider)
T16 sequence (Q05397 whole entry): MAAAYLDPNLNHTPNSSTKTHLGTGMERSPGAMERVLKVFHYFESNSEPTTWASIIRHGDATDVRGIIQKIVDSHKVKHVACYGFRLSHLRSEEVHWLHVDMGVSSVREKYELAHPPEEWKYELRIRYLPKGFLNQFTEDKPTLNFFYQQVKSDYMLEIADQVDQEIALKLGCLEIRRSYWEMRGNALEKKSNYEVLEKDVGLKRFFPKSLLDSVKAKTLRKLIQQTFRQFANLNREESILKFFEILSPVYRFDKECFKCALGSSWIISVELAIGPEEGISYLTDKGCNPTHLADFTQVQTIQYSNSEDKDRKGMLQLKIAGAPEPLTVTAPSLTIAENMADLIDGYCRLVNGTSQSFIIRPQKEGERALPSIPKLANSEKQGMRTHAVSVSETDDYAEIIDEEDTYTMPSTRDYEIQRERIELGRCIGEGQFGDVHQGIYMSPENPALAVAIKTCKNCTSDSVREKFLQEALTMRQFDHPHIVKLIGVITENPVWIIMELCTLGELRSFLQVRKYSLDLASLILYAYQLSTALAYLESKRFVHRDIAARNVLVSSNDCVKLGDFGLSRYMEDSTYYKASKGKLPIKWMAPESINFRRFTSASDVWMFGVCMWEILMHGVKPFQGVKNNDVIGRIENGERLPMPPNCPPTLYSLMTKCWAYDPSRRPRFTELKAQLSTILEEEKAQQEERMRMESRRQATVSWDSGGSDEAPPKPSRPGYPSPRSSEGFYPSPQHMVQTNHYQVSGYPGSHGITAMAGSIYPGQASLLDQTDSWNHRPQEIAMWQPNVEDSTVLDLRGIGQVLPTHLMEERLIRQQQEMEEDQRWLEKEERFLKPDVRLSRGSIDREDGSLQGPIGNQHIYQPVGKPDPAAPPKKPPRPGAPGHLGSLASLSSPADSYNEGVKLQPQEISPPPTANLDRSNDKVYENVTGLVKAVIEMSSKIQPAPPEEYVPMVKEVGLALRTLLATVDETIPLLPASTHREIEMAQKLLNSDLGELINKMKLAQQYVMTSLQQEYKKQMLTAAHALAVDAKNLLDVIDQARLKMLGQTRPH
Experimental: as §1

EPHA7 = target: T17, EPHA7 (Homo sapiens, UniProt Q15375); assay: In vitro selectivity assay; assay type: biochemical; details: selectivity panel
T17 construct: ICE Bioscience Inc. (assay service)
Experimental: as §1

HDAC6 = target: T18, HDAC6 (Homo sapiens, UniProt Q9UBN7); assay: In vitro selectivity assay; assay type: biochemical; details: selectivity panel
T18 construct: ICE Bioscience Inc. (Beijing, China), the contract lab that ran the assay
T18 sequence (Q9UBN7 whole entry): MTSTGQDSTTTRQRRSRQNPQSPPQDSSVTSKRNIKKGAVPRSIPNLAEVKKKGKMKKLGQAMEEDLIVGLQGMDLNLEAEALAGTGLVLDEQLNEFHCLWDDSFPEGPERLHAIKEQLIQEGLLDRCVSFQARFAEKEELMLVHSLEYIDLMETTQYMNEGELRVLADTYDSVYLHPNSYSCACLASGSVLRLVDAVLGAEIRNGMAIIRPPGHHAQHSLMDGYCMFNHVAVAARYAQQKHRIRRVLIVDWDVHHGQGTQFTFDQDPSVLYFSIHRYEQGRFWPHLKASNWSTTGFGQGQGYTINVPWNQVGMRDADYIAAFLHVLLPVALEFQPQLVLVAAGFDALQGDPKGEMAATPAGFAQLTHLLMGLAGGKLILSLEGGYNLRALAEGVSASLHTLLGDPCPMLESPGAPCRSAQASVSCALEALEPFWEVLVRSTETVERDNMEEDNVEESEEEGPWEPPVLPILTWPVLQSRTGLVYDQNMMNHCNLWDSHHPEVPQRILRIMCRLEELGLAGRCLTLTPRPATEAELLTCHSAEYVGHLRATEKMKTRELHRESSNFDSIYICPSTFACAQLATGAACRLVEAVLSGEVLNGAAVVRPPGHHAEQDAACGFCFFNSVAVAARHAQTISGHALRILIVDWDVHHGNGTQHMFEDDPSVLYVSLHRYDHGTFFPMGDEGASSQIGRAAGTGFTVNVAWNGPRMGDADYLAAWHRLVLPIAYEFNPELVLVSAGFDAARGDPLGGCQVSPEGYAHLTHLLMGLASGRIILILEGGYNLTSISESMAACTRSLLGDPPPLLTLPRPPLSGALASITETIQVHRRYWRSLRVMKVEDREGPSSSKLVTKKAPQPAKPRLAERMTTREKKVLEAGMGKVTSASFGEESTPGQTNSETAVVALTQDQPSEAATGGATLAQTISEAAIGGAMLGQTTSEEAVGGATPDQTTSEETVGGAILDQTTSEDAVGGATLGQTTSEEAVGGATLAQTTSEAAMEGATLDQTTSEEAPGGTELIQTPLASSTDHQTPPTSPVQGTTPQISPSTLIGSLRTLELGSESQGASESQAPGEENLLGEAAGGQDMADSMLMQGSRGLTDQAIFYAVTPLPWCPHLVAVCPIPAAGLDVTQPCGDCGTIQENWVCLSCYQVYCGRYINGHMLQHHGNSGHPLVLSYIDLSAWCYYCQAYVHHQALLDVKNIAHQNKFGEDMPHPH
Experimental: as §1

FES = FES (Homo sapiens, UniProt P07332); assay: In vitro selectivity assay; assay type: biochemical; details: selectivity panel
Experimental: as §1

PTK2B = target: T19, PTK2B (Homo sapiens, UniProt Q14289); assay: In vitro selectivity assay; assay type: biochemical; details: selectivity panel
T19 construct: ICE Bioscience Inc. (contract assay provider)
Experimental: as §1

FGFR1 = FGFR1 (Homo sapiens, UniProt P11362); assay: In vitro selectivity assay; assay type: biochemical; details: selectivity panel
Experimental: as §1

KIT = target: T20, KIT (Homo sapiens, UniProt P10721); assay: In vitro selectivity assay; assay type: biochemical; details: selectivity panel
T20 construct: ICE Bioscience Inc. (contract assay provider)
Experimental: as §1

HDAC2 = target: T21, HDAC2 (Homo sapiens, UniProt Q92769); assay: In vitro selectivity assay; assay type: biochemical; details: selectivity panel
T21 construct: ICE Bioscience Inc. (contract assay provider)
Experimental: as §1

ZAP70 = ZAP70 (Homo sapiens, UniProt P43403); assay: In vitro selectivity assay; assay type: biochemical; details: selectivity panel
Chain of ZAP70 (P43403 whole entry): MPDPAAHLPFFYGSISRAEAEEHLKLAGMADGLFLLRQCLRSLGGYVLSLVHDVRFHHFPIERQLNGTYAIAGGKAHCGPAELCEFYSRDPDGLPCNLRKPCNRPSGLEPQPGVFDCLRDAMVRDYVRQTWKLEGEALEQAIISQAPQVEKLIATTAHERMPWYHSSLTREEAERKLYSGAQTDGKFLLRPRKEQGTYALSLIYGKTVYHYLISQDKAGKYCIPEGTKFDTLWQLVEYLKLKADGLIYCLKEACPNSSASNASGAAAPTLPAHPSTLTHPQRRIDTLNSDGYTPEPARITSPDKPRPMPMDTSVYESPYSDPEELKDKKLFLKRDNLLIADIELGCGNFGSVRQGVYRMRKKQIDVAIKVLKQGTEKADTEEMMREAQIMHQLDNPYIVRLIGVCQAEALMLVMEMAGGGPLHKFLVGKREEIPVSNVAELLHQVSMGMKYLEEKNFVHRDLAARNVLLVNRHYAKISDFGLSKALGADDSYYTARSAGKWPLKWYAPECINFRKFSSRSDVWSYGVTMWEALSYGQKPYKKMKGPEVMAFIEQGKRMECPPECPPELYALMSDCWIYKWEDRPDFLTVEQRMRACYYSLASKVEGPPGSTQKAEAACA
Experimental: as §1

INSR = INSR (Homo sapiens, UniProt P06213); assay: In vitro selectivity assay; assay type: biochemical; details: selectivity panel
Experimental: as §1

EPHA5 = target: T22, EPHA5 (Homo sapiens, UniProt P54756); assay: In vitro selectivity assay; assay type: biochemical; details: selectivity panel
T22 construct: ICE Bioscience Inc. (assay service)
Experimental: as §1

KDR = target: T23, KDR (Homo sapiens, UniProt P35968); assay: In vitro selectivity assay; assay type: biochemical; details: selectivity panel
T23 construct: ICE Bioscience Inc. (contract assay provider)
Experimental: as §1

HepG2 xenograft tumor = assay: In vivo antitumor assay, HepG2 xenograft model; set-up: species or system BALB/c mice; details: i.p., 1, 5 and 10 mg/kg
Experimental: Male BALB/c mice (6 weeks old) were purchased from Changzhou Cavens Experimental Animal Limited Company (Changzhou, China). The xenograft model was established by subcutaneous injection of a suspension of HepG2 human liver cancer cells in PBS (200 μL, 1 × 10^7 cells) into the mice. The mice were randomized into four groups and received intraperitoneal injections of vehicle or MPH-5 at concentrations of 1, 5 and 10 mg/kg. Tumor volume was measured at 3-day intervals and calculated as follows: (c × c × d)/2 (c, the smallest diameter; d, the largest diameter). The experiments involving animals were approved by the Ethics Committee of China Pharmaceutical University.

`Cn1cc(-c2cc3cnc(Nc4ccc(-c5cncn5/C=C/C(=O)NO)cc4Cl)cc3n2C(=O)OC(C)(C)C)cn1` [MPH-5] showed an IC50 (BEL7402) of 0.86 µM, an IC50 (ABL1) of over 10 µM and an IC50 (PTK6) of over 10 µM. For the same compound, the IC50 (HDAC1) was over 10 µM, the IC50 (HDAC5) was over 10 µM and the IC50 (BTK) was over 10 µM. For the same compound, the IC50 (TYRO3) was over 10 µM, the IC50 (EPHB3) was over 10 µM and the IC50 (CSF1R) was over 10 µM. For the same compound, the IC50 (EPHA3) was over 10 µM, the IC50 (PDGFRB) was over 10 µM and the IC50 (EPHA6) was over 10 µM. It also gave an IC50 (NTRK1) of over 10 µM, an IC50 (ALK) of over 10 µM and an IC50 (EPHB4) of over 10 µM. The IC50 (MST1R) was over 10 µM, the IC50 (YES1) was over 10 µM and the IC50 (MUSK) was over 10 µM. The IC50 (SRC) was over 10 µM, the IC50 (ZAK) was over 10 µM and the IC50 (FGFR4) was over 10 µM. The IC50 (PTK2) was over 10 µM, the IC50 (EPHA7) was over 10 µM and the IC50 (HDAC6) was over 10 µM. The IC50 (FES) was over 10 µM, the IC50 (PTK2B) was over 10 µM and the IC50 (FGFR1) was over 10 µM. It also gave an IC50 (KIT) of over 10 µM, an IC50 (HDAC2) of over 10 µM and an IC50 (ZAP70) of over 10 µM. The IC50 (INSR) was over 10 µM, the IC50 (EPHA5) was over 10 µM and the IC50 (KDR) was over 10 µM. The body weight change (HepG2 xenograft tumor; HepG2 xenograft mice) was “did not induce any significant body weight change” and the “tumor growth (tumor volume)” value (HepG2 xenograft tumor; HepG2 xenograft, vs vehicle) was “significantly and dose-dependently inhibited the tumor growth”.
